From patent publication US20250127904A1, “SIGLEC LIGANDS, CONJUGATES, AND METHODS OF USE THEREOF” (Osprey Biopharmaceuticals, Inc., priority 2023, published 2025)

Tests used:
[1] = target: T1, biotinylated mouse siglec-2-Fc-Avi (Mus musculus, UniProt P35329); experiment: SPR binding to mouse siglec-2/CD22; settings: steady-state analysis, read-out: Mouse CD22 affinity
T1 construct: made in house
T1 sequence (P35329 22-708 limits assumed): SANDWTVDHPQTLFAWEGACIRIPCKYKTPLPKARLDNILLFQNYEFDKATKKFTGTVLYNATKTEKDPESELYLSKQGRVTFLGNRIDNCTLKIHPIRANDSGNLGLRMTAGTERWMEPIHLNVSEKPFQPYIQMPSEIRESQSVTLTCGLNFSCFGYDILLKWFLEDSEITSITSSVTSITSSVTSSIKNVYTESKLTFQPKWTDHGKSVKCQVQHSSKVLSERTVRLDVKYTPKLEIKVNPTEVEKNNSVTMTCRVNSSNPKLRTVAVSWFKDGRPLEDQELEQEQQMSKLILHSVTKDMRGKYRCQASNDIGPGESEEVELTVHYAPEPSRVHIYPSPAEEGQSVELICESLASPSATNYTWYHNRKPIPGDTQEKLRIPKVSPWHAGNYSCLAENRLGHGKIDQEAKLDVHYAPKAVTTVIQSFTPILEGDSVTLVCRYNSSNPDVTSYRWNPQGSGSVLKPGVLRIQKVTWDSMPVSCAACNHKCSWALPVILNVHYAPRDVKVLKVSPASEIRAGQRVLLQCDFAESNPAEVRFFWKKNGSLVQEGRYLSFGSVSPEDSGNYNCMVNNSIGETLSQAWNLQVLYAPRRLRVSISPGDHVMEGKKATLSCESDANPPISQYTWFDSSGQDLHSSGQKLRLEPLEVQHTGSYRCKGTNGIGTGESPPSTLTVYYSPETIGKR
Procedure: (§1) The following proteins were used for CD22 ligand binding: biotinylated human siglec-2/CD22 protein-His-Avitag (Acro Biosystems, Cat #SI2-H82E3), biotinylated mouse siglec-2-Fc-Avi (in-house production), and recombinant cynomolgus siglec-2/CD22 His-tag (R&D systems, Cat #9864-SL-050). Prior to immobilization, CD22 proteins were treated with SialoExo (Genovis, Cat #G1-SM1-020) for 4 hours at 37° C. to remove native sialic acid residues.
(§2) Capture of biotinylated CD22 constructs was performed using a Cytiva SA chip (BR100398) on a Biacore 8K instrument. Human siglec 2 was immobilized on channels 1-4 and mouse siglec 2 on channels 5-8 on the active flow cell (2) and the reference flow cell (1) was immobilized with biotinylated human FGFR2 Fc Avi, an unrelated protein, to account for any nonspecific binding. Human siglec 2 and Mouse siglec 2 were diluted in running buffer to 20 μg/mL and injected on the active flow cell (2) for 300 seconds at 5 μL/min, yielding about 3500 RU of captured constructs.
(§3) Binding experiments of siglec-ligand conjugated proteins or Siglec ligand compounds were performed on the surfaces prepared above in 10 mM HEPES, 150 mM NaCl, 0.05% Tween-20, pH 7.5, 1% DMSO as the running buffer. Compounds were serially diluted in running buffer from 50 μM to 97.6 nM and injected over both the reference and active flow cells for 90 seconds at 30 μL/min. The compounds were then allowed to dissociate from the surface for 120 seconds. No regeneration was required as the compounds completely dissociated from the surface after 30 seconds. Solvent correction was performed using 0.5, 1, 1.5, and 2% DMSO spike into running buffer without DMSO. Data was analyzed using steady-state analysis in Biacore Insight Evaluation Software, version 3.0.

[2] = target: T2, biotinylated human siglec-2/CD22 protein-His-Avitag (Homo sapiens, UniProt P20273); experiment: SPR binding to human siglec-2/CD22; settings: steady-state analysis, read-out: Human CD22 affinity
T2 construct: purchased Acro Biosystems SI2-H82E3
T2 sequence (P20273 20-847): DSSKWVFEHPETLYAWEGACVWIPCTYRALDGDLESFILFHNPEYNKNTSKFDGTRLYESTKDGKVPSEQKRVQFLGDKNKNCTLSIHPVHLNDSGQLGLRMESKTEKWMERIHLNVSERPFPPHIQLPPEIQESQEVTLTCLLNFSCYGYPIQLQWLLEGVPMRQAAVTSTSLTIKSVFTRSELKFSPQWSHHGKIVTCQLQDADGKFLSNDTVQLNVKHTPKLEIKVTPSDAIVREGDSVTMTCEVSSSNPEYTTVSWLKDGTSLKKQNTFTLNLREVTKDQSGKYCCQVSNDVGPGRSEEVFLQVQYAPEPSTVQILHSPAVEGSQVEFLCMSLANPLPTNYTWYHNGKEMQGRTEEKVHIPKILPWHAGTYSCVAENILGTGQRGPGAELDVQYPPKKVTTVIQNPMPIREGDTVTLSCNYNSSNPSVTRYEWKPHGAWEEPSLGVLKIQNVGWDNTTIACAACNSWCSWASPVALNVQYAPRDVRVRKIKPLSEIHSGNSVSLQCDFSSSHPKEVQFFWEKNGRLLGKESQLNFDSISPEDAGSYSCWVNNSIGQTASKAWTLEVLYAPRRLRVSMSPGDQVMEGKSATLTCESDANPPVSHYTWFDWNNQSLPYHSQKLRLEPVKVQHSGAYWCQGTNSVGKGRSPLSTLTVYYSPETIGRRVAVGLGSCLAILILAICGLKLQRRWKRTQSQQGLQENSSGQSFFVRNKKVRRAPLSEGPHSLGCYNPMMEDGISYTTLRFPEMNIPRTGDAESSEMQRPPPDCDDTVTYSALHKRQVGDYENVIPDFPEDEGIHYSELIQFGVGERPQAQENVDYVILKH
Procedure: as §1, §2, §3

[3] = target: recombinant cynomolgus siglec-2/CD22 His-tag (Macaca fascicularis, UniProt A0A2K5WCZ6); experiment: SPR binding to cynomolgus siglec-2/CD22; settings: steady-state analysis, read-out: Cyno CD22 affinity
recombinant cynomolgus siglec-2/CD22 His-tag, sequence (A0A2K5WCZ6 entry or part of it): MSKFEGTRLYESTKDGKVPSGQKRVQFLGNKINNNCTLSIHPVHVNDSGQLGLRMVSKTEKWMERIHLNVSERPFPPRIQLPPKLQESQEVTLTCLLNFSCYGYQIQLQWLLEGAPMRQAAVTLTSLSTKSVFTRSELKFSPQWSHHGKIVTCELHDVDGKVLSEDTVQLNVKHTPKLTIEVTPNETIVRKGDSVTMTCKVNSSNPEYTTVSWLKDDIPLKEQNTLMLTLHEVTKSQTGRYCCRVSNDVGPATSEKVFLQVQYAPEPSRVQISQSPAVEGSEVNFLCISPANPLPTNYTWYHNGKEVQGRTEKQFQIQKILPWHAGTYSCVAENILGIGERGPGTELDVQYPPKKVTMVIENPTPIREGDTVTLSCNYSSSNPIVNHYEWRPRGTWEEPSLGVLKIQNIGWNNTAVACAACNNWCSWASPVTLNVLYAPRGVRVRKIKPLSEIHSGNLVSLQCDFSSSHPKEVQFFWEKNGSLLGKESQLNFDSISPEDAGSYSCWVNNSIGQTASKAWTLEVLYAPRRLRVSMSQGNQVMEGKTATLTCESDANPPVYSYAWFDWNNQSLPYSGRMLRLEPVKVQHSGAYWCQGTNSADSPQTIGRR
Procedure: as §1
Surface preparation for cyno CD22 protein consisted of amine coupling to Cytiva CM5 chip (Cytiva, Cat #BR100530) using the Cytiva amine coupling kit Type 2 (Cytiva, Cat #BR100633). Following the standard amine coupling protocols, EDC and NHS from the kit were mixed 1:1 and injected over flow cells 1 and 2. Cyno CD22 was then immobilized by injecting 10 μg/mL in Sodium Acetate, pH 5.5 onto flow cell (2) for 420 seconds at 10 uL/min, yielding approximately 2500 RU of captured protein. Any active carboxy groups were then capped with 1M Ethanolamine, pH 8.5 for 420 s on flow cells 1 and 2.
as §3

With `C#Cc1ccc(CC(=O)NC[C@@H](O)[C@@H](O)[C@@H]2O[C@@](OCc3ccccc3)(C(=O)O)C[C@H](O)[C@H]2NC(=O)CO)cc1` [Compound 1, (2R,4S,5R,6R)-2-(benzyloxy)-6-((1R,2R)-3-(2-(4-ethynylphenyl)acetamido)-1,2-dihydroxypropyl)-4-hydroxy-5-(2-hydroxyacetamido)tetrahydro-2H-pyran-2-carboxylic acid] as the molecule, how does the Kd [1] read?
Its Kd is under 1000 nM.

And the Kd [2]?
Its Kd is under 1000 nM.

And the Kd [3]?
The Kd was 1000 to 10000 nM.

With `C#Cc1ccc(CC(=O)NC[C@@H](O)[C@@H](O)[C@@H]2O[C@@](OCc3ccc(O)cc3)(C(=O)O)C[C@H](O)[C@H]2NC(=O)CO)cc1` [Compound 3, (2R,4S,5R,6R)-6-((1R,2R)-3-(2-(4-ethynylphenyl)acetamido)-1,2-dihydroxypropyl)-4-hydroxy-5-(2-hydroxyacetamido)-2-((4-hydroxybenzyl)oxy)tetrahydro-2H-pyran-2-carboxylic acid] as the molecule, how does the Kd [1] read?
Its Kd is 1000 to 10000 nM.

What about the Kd [2] of the same molecule?
The Kd was under 1000 nM.

And the Kd [3]?
The Kd was under 1000 nM.

How did the Kd [1] turn out when `C#CCCCCCCCCOc1ccc(CC(=O)NC[C@@H](O)[C@@H](O)[C@@H]2O[C@@](OCc3ccccc3)(C(=O)O)C[C@H](O)[C@H]2NC(=O)CO)cc1` [Compound 7, (2R,4S,5R,6R)-2-(benzyloxy)-6-((1R,2R)-3-(2-(4-(dec-9-yn-1-yloxy)phenyl)acetamido)-1,2-dihydroxypropyl)-4-hydroxy-5-(2-hydroxyacetamido)tetrahydro-2H-pyran-2-carboxylic acid] was run?
The Kd was 1000 to 10000 nM.

What about the Kd [2] of the same molecule?
Its Kd is 1000 to 10000 nM.

What about the Kd [3] of the same molecule?
Its Kd is 1000 to 10000 nM.

What does the source list for `O=C(O)CCCCCCCCCCc1ccc(CC(=O)NC[C@@H](O)[C@@H](O)[C@@H]2O[C@@](OCc3ccccc3)(C(=O)O)C[C@H](O)[C@H]2NC(=O)CO)cc1` [Compound 8, (2R,4S,5R,6R)-2-(benzyloxy)-6-((1R,2R)-3-(2-(4-(10-carboxydecyl)phenyl)acetamido)-1,2-dihydroxypropyl)-4-hydroxy-5-(2-hydroxyacetamido)tetrahydro-2H-pyran-2-carboxylic acid]?
Kd [1]: < 1000 nM; Kd [2]: < 1000 nM; Kd [3]: 1000 to 10000 nM

Which Kd [1] does the source give for `C#CCOCCOCCOCc1ccc(CC(=O)NC[C@@H](O)[C@@H](O)[C@@H]2O[C@@](OCc3ccccc3)(C(=O)O)C[C@H](O)[C@H]2NC(=O)CO)cc1` [Compound 9, (2R,4S,5R,6R)-2-(benzyloxy)-6-((1R,2R)-1,2-dihydroxy-3-(2-(4-((2-(2-(prop-2-yn-1-yloxy)ethoxy)ethoxy)methyl)phenyl)acetamido)propyl)-4-hydroxy-5-(2-hydroxyacetamido)tetrahydro-2H-pyran-2-carboxylic acid] here?
Its Kd is 1000 to 10000 nM.

What about the Kd [2] of the same molecule?
Its Kd is 1000 to 10000 nM.

And the Kd [3]?
The Kd was 1000 to 10000 nM.

With `C#Cc1ccc(CC(=O)NC[C@@H](O)[C@@H](O)[C@@H]2O[C@@](OCCCCCCOC)(C(=O)O)C[C@H](O)[C@H]2NC(=O)CO)cc1` [Compound 11, (2R,4S,5R,6R)-6-((1R,2R)-3-(2-(4-ethynylphenyl)acetamido)-1,2-dihydroxypropyl)-4-hydroxy-5-(2-hydroxyacetamido)-2-((6-methoxyhexyl)oxy)tetrahydro-2H-pyran-2-carboxylic acid] as the molecule, how does the Kd [1] read?
The Kd was 1000 to 10000 nM.

What about the Kd [2] of the same molecule?
The Kd was under 1000 nM.

And the Kd [3]?
Its Kd is under 1000 nM.

`C#Cc1ccc(CC(=O)NC[C@@H](O)[C@@H](O)[C@@H]2O[C@@](SCc3ccccc3)(C(=O)O)C[C@H](O)[C@H]2NC(=O)CO)cc1` [Compound 12, (2S,4S,5R,6R)-2-(benzylthio)-6-((1R,2R)-3-(2-(4-ethynylphenyl)acetamido)-1,2-dihydroxypropyl)-4-hydroxy-5-(2-hydroxyacetamido)tetrahydro-2H-pyran-2-carboxylic acid] was tested. Which Kd [1] did it give?
Its Kd is under 1000 nM.

What about the Kd [2] of the same molecule?
The Kd was under 1000 nM.

And the Kd [3]?
Its Kd is under 1000 nM.

With `C#CCOCCCCCCCc1ccc(CC(=O)NC[C@@H](O)[C@@H](O)[C@@H]2O[C@@](OCc3ccccc3)(C(=O)O)C[C@H](O)[C@H]2NC(=O)CO)cc1` [Compound 13, (2R,4S,5R,6R)-2-(benzyloxy)-6-((1R,2R)-1,2-dihydroxy-3-(2-(4-(7-(prop-2-yn-1-yloxy)heptyl)phenyl)acetamido)propyl)-4-hydroxy-5-(2-hydroxyacetamido)tetrahydro-2H-pyran-2-carboxylic acid] as the molecule, how does the Kd [1] read?
Its Kd is 1000 to 10000 nM.

What about the Kd [2] of the same molecule?
The Kd was 1000 to 10000 nM.

What about the Kd [3] of the same molecule?
Its Kd is 1000 to 10000 nM.

What does the source list for `O=C(O)CCCCCCCCC#Cc1ccc(CC(=O)NC[C@@H](O)[C@@H](O)[C@@H]2O[C@@](OCc3ccccc3)(C(=O)O)C[C@H](O)[C@H]2NC(=O)CO)cc1` [Compound 14, (2R,4S,5R,6R)-2-(benzyloxy)-6-((1R,2R)-3-(2-(4-(10-carboxydec-1-yn-1-yl)phenyl)acetamido)-1,2-dihydroxypropyl)-4-hydroxy-5-(2-hydroxyacetamido)tetrahydro-2H-pyran-2-carboxylic acid]?
Kd [1]: < 1000 nM; Kd [2]: 1000 to 10000 nM; Kd [3]: 1000 to 10000 nM

`C#CCOCCOCCOc1ccc(CC(=O)NC[C@@H](O)[C@@H](O)[C@@H]2O[C@@](OCc3ccccc3)(C(=O)O)C[C@H](O)[C@H]2NC(=O)CO)cc1` [Compound 15, (2R,4S,5R,6R)-2-(benzyloxy)-6-((1R,2R)-1,2-dihydroxy-3-(2-(4-(2-(2-(prop-2-yn-1-yloxy)ethoxy)ethoxy)phenyl)acetamido)propyl)-4-hydroxy-5-(2-hydroxyacetamido)tetrahydro-2H-pyran-2-carboxylic acid] was tested. Which Kd [1] did it give?
Its Kd is 1000 to 10000 nM.

What about the Kd [2] of the same molecule?
The Kd was 1000 to 10000 nM.

And the Kd [3]?
Its Kd is 1000 to 10000 nM.

Which Kd [1] does the source give for `CCCCCCO[C@]1(C(=O)O)C[C@H](O)[C@@H](NC(=O)CO)[C@H]([C@H](O)[C@H](O)CNC(=O)Cc2ccc(-c3cn(CCOCCOCCOCCC(=O)NCC)nn3)cc2)O1` [Compound 16, (2R,4S,5R,6R)-6-((1R,2R)-1,2-dihydroxy-3-(2-(4-(1-(12-oxo-3,6,9-trioxa-13-azapentadecyl)-1H-1,2,3-triazol-4-yl)phenyl)acetamido)propyl)-2-(hexyloxy)-4-hydroxy-5-(2-hydroxyacetamido)tetrahydro-2H-pyran-2-carboxylic acid] here?
Its Kd is under 1000 nM.

And the Kd [2]?
Its Kd is under 1000 nM.

And the Kd [3]?
The Kd was under 1000 nM.
